Where “and” joins values, the source holds several entries; their conditions need not be identical. Identical values can stand only once.
How the values were obtained:
[1] = molecular target: T1, TRIB2 (Homo sapiens, UniProt Q92519); test: Western blot of TRIB2 protein levels in cancer cells; format: cell-based; design: Whole cell lysate proteins were analyzed by Western blot; endogenous in cells; host or cells: LNCaP-ENR (enzalutamide-resistant LNCaP) cells; details: for TRIB2 protein levels: LNCaP-ENR cells, 24 hours
T1 sequence (Q92519 1-343): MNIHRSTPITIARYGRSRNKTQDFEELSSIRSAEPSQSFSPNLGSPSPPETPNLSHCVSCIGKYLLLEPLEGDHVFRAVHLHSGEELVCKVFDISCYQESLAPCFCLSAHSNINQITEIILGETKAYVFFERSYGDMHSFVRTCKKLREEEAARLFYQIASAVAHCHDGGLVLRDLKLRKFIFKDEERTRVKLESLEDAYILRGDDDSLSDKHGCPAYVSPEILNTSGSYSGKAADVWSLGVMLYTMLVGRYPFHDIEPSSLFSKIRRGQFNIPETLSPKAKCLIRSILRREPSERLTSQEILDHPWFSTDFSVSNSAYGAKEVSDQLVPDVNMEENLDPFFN
Description: Enzalutamide-resistant prostate cancer (ERPC) cells (LNCaP-ENR cells) were plated and treated with 10 μM each of various compounds for 24 hours. Exemplary methods for developing and using LNCaP-ENR cells is disclosed in Monga, J., Subramani, D., Bharathan, A., and Ghosh, J. (2020) “Pharmacological and genetic targeting of 5-lipoxygenase interrupts c-Myc oncogenic signaling and kills enzalutamide-resistant prostate cancer cells via apoptosis.” Scientific Reports 10: 6649, the disclosure of which is incorporated herein by reference in its entirety. Whole cell lysate proteins were analyzed by Western blot. TRIB2 antibody was used to detect protein levels of TRIB2 and GAPDH was used as loading control. Monoclonal anti-Trib2 antibody was purchased from Santa Cruz Biotech, Santa Cruz, CA.
(§1) LNCaP-ENR cells were treated with varying doses (4 μM, 8 μM, or 12 μM) of DCV for 24 hours. Effects on TRIB2 protein levels and its downstream targets (e.g., pAkt, Bcl-xL, Survivin, and FOXO3) were analyzed by Western blot. GAPDH was used as loading control. Protein levels of TRIB2, pAKT (S473), Bcl-xL, and Survivin were reduced in cells treated with 12 μM of DCV compared to control-treated cells (FIG. 3A). Levels of FOXO3 protein were increased at 12 μM of DCV treatment compared to control treatment. This was expected, as FOXO3 level is known to be decreased by Trib2. These effects on cellular protein levels were DCV concentration-dependent, with the most pronounced effects observed at the highest concentration tested (12 μM).

[2] = tested on: NCI-H226, SK-MES-1, NCI-H2228 and NCI-H596 lung cancer cell lines; test: 72-hour cell viability assay in lung cancer cell lines; format: cell-based, human
[3] = molecular target: T2, pure Trib2 protein (Homo sapiens, UniProt Q92519); test: Thermal shift assay by Differential Scanning Spectro-fluorometry; format: binding; details: decreased from 41° C. (DMSO only)
T2 sequence (Q92519 1-343): T1 sequence (Q92519 1-343)
Excerpt: FIG. 8 depicts a graph showing the results of a thermal shift assay of pure Trib2 protein by Differential Scanning Spectro-fluorometry.

[4] = tested on: Trib2-OE cells; test: Enzalutamide sensitivity of Trib2-overexpressing prostate cancer cells; format: cell-based, human; details: Trib2-OE cells, DCV 6 μM
Excerpt: Prostate cancer cells were transfected with full length human gene to overexpress Trib2 (FIG. 18). […] Trib2 siRNA was used in parallel experiments as a positive control.

[5] = tested on: ERPC cells; test: DNA degradation assay; format: cell-based, human
Excerpt: FIG. 17 depicts a graph showing the apoptotic effects of DCV as measured by DNA degradation assay.

[6] = in vivo; cited from earlier work
[7] = cited from earlier work
[8] = tested on: pAkt, Bcl-xL, Survivin, and FOXO3; test: Western blot of TRIB2 downstream targets in LNCaP-ENR cells; format: cell-based, human; details: 12 μM, 24 hours
Description: as §1

[9] = tested on: LNCaP-ENR cells; test: Cell cycle distribution; format: cell-based, human; details: ERPC cells; FIG. 16 at 8 μM
[10] = tested on: LNCaP-ENR cells; test: MTS/PES cell viability assay, ERPC cells; format: cell-based, human
Description: Plates were incubated for 72 hours at 37° C. in a CO2 incubator. Cell viability was measured by MTS/PES cell titer assay (Promega Corp., Madison, WI).

[11] = tested on: ERPC tumors (LNCaP-ENR cells)
Description: BALB/c nude mice were subcutaneously injected with the LNCaP-ENR cells (1×10^6 cells per mouse) to develop tumors. Once the tumors reached a size of ~100 cubic mm, the mice were treated with 30 mg/kg/day DCV or a solution of DMSO:cremophor:PBS at 1:1:8 ratio, orally for four weeks (n=3). Tumor size and body weights were measured once per week. Tumor volumes were calculated using the following formula:
[formula] • Wherein “TV” means tumor volume; • “a” is the long diameter of a tumor; and • “b” is the short diameter of a tumor.
Tumor samples were collected at 4 weeks post-treatment, and TRIB2 protein levels in the tumors were determined by immunohistochemistry (IHC) using monoclonal anti-Trib2 antibody (Santa Cruz Bio, Santa Cruz, CA; Cat. No.: 100878) at 1:100.

COC(=O)N[C@H](C(=O)N1CCC[C@H]1c1nc(-c2ccc(-c3ccc(-c4c[nH]c([C@@H]5CCCN5C(=O)[C@@H](NC(=O)OC)C(C)C)n4)cc3)cc2)c[nH]1)C(C)C [Daclatasvir, 4,4′-bis[2-((2S)-1-{(2S)-2-[(methoxycarbonyl)amino]-3-methylbutanoyl}-2-pyrrolidinyl)-1H-imidazol-4-yl]-1,1′-biphenyl]
TRIB2 protein levels ([1]; 10 μM, Western blot): downregulated
TRIB2 protein levels ([1]; 12 μM, vs control-treated cells): reduced
Trib2 protein level ([1]; range of aggressive cancer cell lines, including prostate, lung, and kidney): downregulates
killing of lung cancer cells [2]: effectively kills
Tm of Trib2 protein in presence of DCV [3]: 37 °C
re-sensitization of resistant cells to enzalutamide [4]: re-sensitizes resistant cells to enzalutamide
degradation of chromatin DNA [5]: triggers degradation of chromatin DNA to nucleosomal fragments
maximum tolerated dose (MTD) [6]: > 200 mg/kg/day
tolerability ([7]; 100 mg po daily): well tolerated
median peak plasma concentration ([7]; after one dose of 60 mg, listed as DCV): ~ 2 μg/ml and 2.5 μM
mean terminal half-life ([7]; in vivo): 12 to 15 h
time to peak plasma concentrations after dosing ([7]; in vivo): 1 to 2 h
time to steady state levels ([7]; in vivo): after three days of administration
Levels of FOXO3 protein ([8]; vs control treatment): increased
Protein levels of pAKT (S473), Bcl-xL, and Survivin ([8]; vs control-treated cells): reduced
cell cycle progression [9]: arresting them at G0/G1 phase
Cell viability ([10]; LNCaP-ENR cells, varying doses, 72 hours, MTS/PES): effectively decreased
effective concentration in the pre-clinical prostate cancer modeling ([10]; target steady state plasma concentration of planned trial): 4 µM
Tumor volumes ([11]; 30 mg/kg/day orally for four weeks, vs vehicle-treated animals): significantly reduced
TRIB2 protein levels in tumors by IHC ([11]; 30 mg/kg/day orally, 4 weeks): reduced
